Laboratory results reported in publication PMC8599855, “Detection of cancer stem cells by EMT-specific biomarker-based peptide ligands” (Scientific Reports, 2021).

Tests used:
[1] = 37 °C, ref previous studies; cited from earlier work
From the text: Despite the cancer cells captured by F7 or SP peptide were identified as CSCs that expressed CD44, single peptide binding cells (F7+ or SP+) and double peptides binding cells (F7+ /SP+ , as shown in Fig. 2d) were considered as different subpopulations that exist at the different stages of cancer. […] There are several possibilities for these findings. First, the permeability ...

SAS cells [2] = experiment: Fluorescence-based peptide binding assay (confocal microscopy); format: cell-based, human; settings: 50 ng/μl labeled peptide, 37 °C; for Cell uptake: fluorescent signal in cytoplasm: one hour and later
Experimental: Figure 1 Evaluation of peptide binding activity to SAS cells. (a) IF analysis of F7 peptide and SP peptide binding to SAS cells. […] Red: Lissamine Rhodamine labeled F7 peptide, Green: FITC labeled SP peptide, Blue: DAPI; BF, bright field; Scale bar, 10 μm. (b) The kinetics of F7 peptide binding to SAS-EGFP-Fluc cells. Cells were incubated in the presence of 50 ng/μl peptides at 37 °C for the indicated periods of time. (c) The kinetics of SP peptide binding to SAS-E2-crimson-P2A::ttksr39 cells at indicated time points.
SAS-EGFP-Fluc and SAS-E2-crimson-P2A::ttksr39 were seeded on 8-well chamber slides and incubated with fluorescein labeled F7 peptide and SP peptide respectively for the different time points (0, 0.25, 0.5, 1, 2, 4, 8, 12 and 24 h). HEK293 cell lines without expression of vimentin and nucleolin served as a negative control for the specificity of peptides. After removal of the medium and a PBS rinse, the cells were fixed with 3.7% paraformaldehyde for 10 min followed by PBS washing for 3 times. Subsequently, all slides were mounted with VECTASHIELD Mounting Medium with DAPI (cat. H-1200, Vector Labs, Burligame, CA, USA) and covered with cover glasses before visualization under a laser-scanning microscope (Zeiss LSM 880, Jena, Germany) with Zen Blue software (ZEISS, Jena, Germany).

EMT-induced SAS cells = experiment: Flow cytometry analysis of peptide binding to EMT-induced cells; format: cell-based, human; settings: 50 ng/μl labeled peptide, 24 h, 37 °C, after Unc0642 and/or IR treatment
Experimental: Figure 4 Evaluation of peptide binding activity to EMT derived cells induced by Unc0642/IR. After treatment of Unc0642 or radiation, EMT derived cells were incubated for 24 h in the presence of 50 ng/μl of fluorescein-labeled F7 (a) and SP peptide (b) at 37 °C respectively. FACS analysis was performed on gated live cells and light scatter parameters were measured using the 488 nm laser. The dot plot represented the particle size (FSC) versus granularity (SSC) of the cell population. The histogram represented the number of cells from P1 and P2 regions displaying a given fluorescence signal. Right graph: the quantitative analysis in the ratio of fluorescein-labeled peptides binding to SAS cells.
The cells were treated for EMT induction as described above. Then, 50 ng/μl of F7 and SP peptides were added into the culture medium and co-incubated for 24 h. The cells were detached and fixed with 3.7% paraformaldehyde for 15 min followed by resuspension in PBS. FACS analysis was performed on gated live cells using a flow cytometer (Beckman Coulter CytoFLEX, Brea, CA, USA).

SAS xenograft tumor = experiment: Peptide binding in tumor after intra-tumoral injection (IF of excised tumor); format: in vivo, mouse; settings: intra-tumoral injection on day 31, tumors excised after 24 h; Unc0642/IR-treated groups versus control; F7 in SAS-EGFP-Fluc, SP in SAS-wt tumors
From the text: Figure 5 Evaluation of peptide binding ability in SAS xenograft mouse model after the treatment of Unc0642/IR. (a) Schematic diagram for in vivo EMT induction via the treatment of Unc0642 and radiation. (b) Evaluation of the effect of Unc0642/IR in SAS-EGFP-Fluc-bearing mice by optical bioluminescence image. (c) Tumor burden of each group was monitored at indicated time points. Data represent mean ± SD (n = 5–6/group). *p < 0.05, **p < 0.01, ***p < 0.001 by Student’s t-test. ***p = 0.00058, Ctrl versus Unc0642 on day 14; *p = 0.049, Ctrl versus IR on day 18; **p = 0.0023, Ctrl versus IR on day 21; *p = 0.0179, Ctrl versus IR on day 24; *p = 0.036, Ctrl versus Unc0642 + IR on day 24. (d) The body weights of mice were recorded during the period of monitoring. Data are mean ± SD (n = 5–6/group). (e, f) Mice were given an intra-tumoral injection of peptide. At 24 h later, tumor samples were excised and the signal derived from the peptide was observed using confocal microscopy. Representative confocal micrographs of tissue sections immunolabeled with CD44. The arrowheads indicate the presence of F7 and SP peptide. Blue: DAPI. Scale bar, 20 μm. […]

[3] = test system: SAS spheres expressing CD44; experiment: Peptide binding to tumor spheres (confocal microscopy); format: cell-based, human; settings: fluorescein-labeled peptides, 24 h incubation
From the text: Figure 2 Expression of CSC markers corresponding to peptide binding. (a) Phase-contrast photomicrographs of the spheres cultured from SAS-E2-crimson-P2A::ttksr39 cell line using the ultra-low attachment plate. Right panel: adherent cells. magnification, 100×. (b) ICC results showing the expression of representative CSC marker, CD44 and EMT markers, vimentin and nucleolin in spheres (upper panel) and adherent cells (lower panel). E-cadherin is an epithelial cell marker. (c) The peptide binding to tumor spheres which highly expressed CD44. The arrow indicates the presence of F7 and SP peptide. Red: Lissamine Rhodamine labeled F7 peptide, Green: FITC labeled SP peptide, Blue: DAPI; Scale bar, 20 μm. (d) Comparison of peptides binding to spheres and adherent cells. Yellow: colocalization.
SAS cells were seeded in a 6-well cell culture plate with ultra-low attachment (Corning Costar, Tewksbury, MA, USA) at the density of 1 × 10^5 cells/well and incubated for 3–5 days in a 5% CO2 humidified incubator at 37 °C. All measurements on the SAS spheroids were carried out with a diameter of approximately 0.75 mm. For ICC-IF staining, the spheroids were fixed in 3.7% paraformaldehyde, washed with PBS and permeated with 0.1% Triton X-100 for 10 min before blocking with 20% FBS for 10 min at 37 °C, followed by the incubation with anti-CD44 antibody (GTX102111, GeneTex, Irvine, CA, USA) at 4 °C overnight. […]

SAS cells [4] = experiment: Western blot of EMT/CSC markers after in vitro induction of EMT; format: cell-based, human; settings: TGF-β1 10 and 20 ng/ml, SAS cells, immunoblotting (Fig. S2)
Experimental: To induce the EMT of SAS cells, cells were seeded in 60 mm^2 dishes at the density of 1 × 10^6 cells/dish overnight and incubated with 1.25 and 10 μM Unc0642. After 24 h, cells were exposed under 2 Gy and 4 Gy of radiation by a RS2000 Series Biological Irradiator (Rad Source Technologies Inc, Buford, GA, USA) and replaced with fresh Unc0642 containing medium every 24 h. The expression of vimentin and E-cadherin were detected by western blotting.
Cultured cells were placed on ice, washed by ice-cold PBS and lysed using CytoBuster Protein Extraction Reagent (cat. 71,009, Bedford, MA, USA) containing Protease Inhibitor Cocktail Set I (cat. 539131, Millipore, Bedford, MA, USA). Cells were then scraped, collected in Eppendorf tubes and the sonicated for 30 min. The lysate was spun down at 12,000 g for 10 min at 4 °C. The protein content was measured using Bradford reagent (BIO-RAD, Hercules, CA, USA). The equal amounts of protein (40 μg) were separated in SDS-PAGE gels (30% Acrylamide/Bis Solution, 29:1, cat. 1610157, BIO-RAD, Hercules, CA, USA) and transferred to PVDF membranes (cat. NEF1002001PK, Perkin-Elmer life sciences, Boston, MA, USA). For immunoblotting, membranes were cut in terms of the molecular weight range prior to hybridization with primary antibody for vimentin (GTX100619, GeneTex, Irvine, CA, USA), nucleolin (GTX132778, GeneTex, Irvine, CA, USA), E-cadherin (GTX50757, GeneTex, Irvine, CA, USA) and b-actin (GTX109639, GeneTex, Irvine, CA, USA) overnight at 4 °C and then incubated with horseradish peroxidase HRP-conjugate goat anti-rabbit IgG (GeneTex, Irvine, CA, USA). Protein signals were visualized using a LumiFast Chemiluminescence Detection Kit (cat. JT96-K001S, T-Pro Biotechnology, Taiwan). Image capture was performed on an ImageQuant LAS4000 biomolecular image (GE healthcare life, Chicago, IL, USA). The intensities of protein bands were quantitated using ImageJ Gel Analysis program. Quantification of protein expression was performed by Image J. b-actin was used as loading control.

In the case of DMPGTVLP [F7 peptide], the “Stability in the presence of serum” value [1] is listed as “high stability”, the “Intracellular localisation at 24 h” value (SAS cells [2]) is listed as “remained at the edge of nucleus and no longer moved” and the “Cell uptake: fluorescent signal in cytoplasm” value (SAS cells [2]) is listed as “appeared in cytoplasm gradually and accumulated with the incubation time”. The “Peptide binding to EMT-induced SAS cells (FACS)” value (EMT-induced SAS cells) was “increased with increasing dose of IR and Unc0642”, the “Amount of labeled peptide in tumor tissue” value (SAS xenograft tumor) was “increased in tumor tissues” and the “Binding to CD44 expressing spheres” value [3] was “able to bind and detect CSCs”.
For SAHGTSTGVPWP [SP peptide], the “Stability in the presence of serum” value [1] is listed as “high stability”, the “Intracellular localisation at 24 h” value (SAS cells [2]) is listed as “remained at the edge of nucleus and no longer moved” and the “Cell uptake: fluorescent signal in cytoplasm” value (SAS cells [2]) is listed as “appeared in cytoplasm gradually and accumulated with the incubation time”. The “Peptide binding to EMT-induced SAS cells (FACS)” value (EMT-induced SAS cells) was “significantly higher in combined Unc0642- and IR-treated SAS cells”, the “Amount of labeled peptide in tumor tissue” value (SAS xenograft tumor) was “increased in tumor tissues” and the “Binding to CD44 expressing spheres” value [3] was “able to bind and detect CSCs”.
In the case of “TGF-β1: multifunctional cytokine used to induce EMT”, the E-cadherin expression (SAS cells [4]) is reported as “downregulated the expression of E-cadherin” and the Vimentin expression (SAS cells [4]) is reported as “upregulated the expression of vimentin”.
